Data reported in patent US7595055B2, “Pharmaceutical composition comprising an extract or compounds isolated from Elfvingia applanata for the prevention and the treatment of diabetes and diabetic complications” (priority 2003, dated 2009).
Like-named read-outs stand apart in the source and are kept apart here.

Target: T1, rat lenses aldose reductase (Rattus norvegicus, UniProt P07943)
T1 construct: The supernatant fraction of the rat lens homogenate was prepared in accordance with the procedure described in literature; from tissue; host or cells: lens of SD rats
Test: Inhibitory effect on rat lens aldose reductase activity in vitro
Assay type: biochemical
Conditions: for IC50: rat lens aldose reductase, DL-glyceraldehyde substrate, NADPH decrease at 340 nm
Procedure: Crude aldose reductase (AR) was prepared as follows: rat lense were removed from SD rats weighing 250-280 g and frozen until use. The supernatant fraction of the rat lens homogenate was prepared in accordance with the procedure described in literature (Hayman, S. & Kinoshita, J. H.; J. Biol. Chem., 240, pp 877-882, 1965). Partially purified enzyme with a specific activity of 6.5 U/mg was routinely used to rest enzyme inhibition.
(2) Measurement of Aldose Reductase Activity AR activity was assayed spectrophotometrically by measuring the decrease in absorption of NADPH at 340 nm over a 5 min with DL-glyceraldehyde as a substrate (Sato, S and Kador, P. F., Biochem. Pharmacol., 40, pp 1033-1042, 1990). Each 1.0 ml of cuvette containing equal units of enzyme, 0.10M sodium phospate buffer (pH 6.2), 0.3 mM NADPH with or without 10 mM substrate and the enzyme inhibitor. The concentration of inhibitors giving 50% inhibition of enzyme activity (IC50) was calculated from the lease-squares regression line of the logarithmic concentration plotted against the remaining activity.

Structure (SMILES) | IC50 (read-out: IC50 (converted)) | inhibition (%) (Concentration 0.1 (unit not given)) | inhibition (%) (Concentration 1 (unit not given)) | inhibition (%) (Concentration 10 (unit not given)) | IC50
O=C(O)c1cc(O)ccc1O [2,5-dihydroxybenzoic acid, 2,5-dihydroxy benzoic acid] | 256 µM | – | – | – | –
CCCCCCCC[C@@H](O)C(=O)N[C@@H](CO[C@@H]1OC(CO)[C@@H](O)C(O)C1O)[C@H](O)/C=C/CC/C=C(\C)CCCC (stereo partly shown) [Cerebroside] | 52.3 µM | – | – | – | –
O=Cc1ccc(O)c(O)c1 [Protocatechualdehyde, protocatechualdehyde] | 5.21 µM | – | – | – | –
O=C(O)CC1(CC(=O)O)CCCC1 [TMG, tetramethylene glutaric acid] | – | 29.8% | 53.7% | 82.1% | 0.63 µg/mL
